Patent US6822003B2, “Aldose reductase inhibitor and process for preparation thereof” (Council of Scientific and Industrial Research, priority 2001, dated 2004)

What was measured:
[1] = molecular target: rat lens aldose reductase (Rattus norvegicus, UniProt P07943); assay: rat lens aldose reductase inhibition, decrease in absorbence at 340 nm; format: biochemical; settings: DL-glyceraldehyde substrate, 25° C., pH 7.0; read-out: IC50 against rat lens aldose reductase inhibitory activity
Experimental: Lens were collected from rat eyes and homogenized with sodium, potassium phosphate buffer (0.135 M, pH 7.0) containing 0.5 mM of phenyl methyl sulphonyl fluoride and 10 mM of β-mercaptoethanol. The homogenate was centrifuged at 10,000 r.p.m for 30 minutes at 4° C. The supernatant was taken as enzyme source. Enzyme reaction was carried out at 25° C. in a quartz cuvette with a 1 cm light path. The assay mixture contained 100 μL of nicotinamide adenine dinucleotide phosphate tetra sodium salt (from a stock solution of 9.6 mM), 100 μL of DL-glyceraldehyde (from a stock solution of 250 mM), 10 μL of inhibitor dissolved in dimethyl sulphoxide, sodium-potassium-phosphate buffer (0.135 M, pH 7.0) to make up the total volume to 3 mL and the reaction was initiated by the addition of 200 μL of enzyme solution. The enzyme reaction was monitored by the decrease in absorbence at 340 nm and compared with enzyme reaction without inhibitor.

solubility in solvents = format: physicochemical
diabetic rats = settings: via an intragastric tube, compared with ONO-2235; cited from earlier work

In the case of `CCCCCCOc1cc(O)cc2c1C(=O)C(O)=CC2=O` [Compound 1, 2, 6, dihydroxy, 8, hexoxy, 1, 4, naphthaquinone], the IC50 [1] is reported as 26.2 µM, the “solubility in chloroform and hexane” value (solubility in solvents; chloroform and hexane) is reported as “slightly soluble” and the “solubility in methanol, ethyl acetate, dimethyl sulphoxide, diethyl ether, sodium bicarbonate, sodium carbonate and sodium hydroxide solution” value (solubility in solvents; organic solvents and alkaline solutions) is reported as “soluble”. For the same compound, the solubility in water (solubility in solvents; water) was “insoluble”.

In the case of `O=C(/C=C/c1ccc(O)cc1)c1ccc(O)cc1O` [Isoliquiritigenin, isoliquiritigenin], the “suppression of sorbitol accumulation in the red blood cells, the sciatic nerve, and the lens” value (diabetic rats) is listed as “suppressed sorbitol accumulation in the red blood cells, the sciatic nerve, and the lens as effectively as ONO-2235”.
